Measurements: patent publication US7947726B2, “Non-steroidal ligands for the glucocorticoid receptor, and compositions thereof” (The Regents of the University of California, priority 2002, dated 2011)
Values joined by “and” are separate entries in the source; they are usually repeats but may differ in a detail not shown here. Equal entries are not always repeated.

Assays:
MR = target: T1, MR (Homo sapiens, UniProt P08235); experiment: MR activation (max fold activation); assay type: cell-based; conditions: Table 4
T1 sequence (P08235 1-984): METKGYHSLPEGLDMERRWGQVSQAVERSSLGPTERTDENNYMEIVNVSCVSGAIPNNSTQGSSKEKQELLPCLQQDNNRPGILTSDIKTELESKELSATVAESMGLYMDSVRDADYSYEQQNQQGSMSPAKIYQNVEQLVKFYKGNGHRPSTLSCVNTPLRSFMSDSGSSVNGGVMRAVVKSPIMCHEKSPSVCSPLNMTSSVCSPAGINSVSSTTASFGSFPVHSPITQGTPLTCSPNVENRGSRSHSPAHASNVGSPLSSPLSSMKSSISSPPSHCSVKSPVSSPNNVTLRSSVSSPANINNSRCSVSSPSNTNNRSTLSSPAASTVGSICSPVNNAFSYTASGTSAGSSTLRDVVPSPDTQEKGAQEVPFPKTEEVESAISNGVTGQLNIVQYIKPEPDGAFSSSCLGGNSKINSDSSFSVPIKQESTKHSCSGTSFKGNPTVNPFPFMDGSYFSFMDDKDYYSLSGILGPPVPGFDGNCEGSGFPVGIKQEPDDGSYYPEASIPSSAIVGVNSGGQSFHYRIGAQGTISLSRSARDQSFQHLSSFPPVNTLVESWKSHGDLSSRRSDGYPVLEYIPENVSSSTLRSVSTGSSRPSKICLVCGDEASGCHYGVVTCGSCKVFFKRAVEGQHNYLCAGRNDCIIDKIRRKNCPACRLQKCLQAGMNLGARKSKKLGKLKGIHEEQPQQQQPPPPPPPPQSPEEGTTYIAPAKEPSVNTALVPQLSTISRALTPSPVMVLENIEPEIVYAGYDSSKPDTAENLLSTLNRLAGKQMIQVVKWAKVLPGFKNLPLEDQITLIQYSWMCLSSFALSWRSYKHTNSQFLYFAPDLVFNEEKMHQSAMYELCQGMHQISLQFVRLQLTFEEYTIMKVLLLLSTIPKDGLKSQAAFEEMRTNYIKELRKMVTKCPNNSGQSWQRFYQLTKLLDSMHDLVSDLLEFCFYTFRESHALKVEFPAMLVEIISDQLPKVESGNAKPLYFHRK

GR = target: T2, GR (Rattus norvegicus, UniProt P06536); experiment: AP-1 repression luciferase assay in U2OS cells stably transfected with rat GR; assay type: cell-based; conditions: Table 5, TPA-stimulated U2OS cells; for EC50: read-out: Repression AP-1 pot (EC50); for Emax: U2OS, 12 h, read-out: Repression AP-1 % max repression
T2 construct: expressed in transfected cells; gift of Keith Yamamoto
T2 sequence (P06536 1-795): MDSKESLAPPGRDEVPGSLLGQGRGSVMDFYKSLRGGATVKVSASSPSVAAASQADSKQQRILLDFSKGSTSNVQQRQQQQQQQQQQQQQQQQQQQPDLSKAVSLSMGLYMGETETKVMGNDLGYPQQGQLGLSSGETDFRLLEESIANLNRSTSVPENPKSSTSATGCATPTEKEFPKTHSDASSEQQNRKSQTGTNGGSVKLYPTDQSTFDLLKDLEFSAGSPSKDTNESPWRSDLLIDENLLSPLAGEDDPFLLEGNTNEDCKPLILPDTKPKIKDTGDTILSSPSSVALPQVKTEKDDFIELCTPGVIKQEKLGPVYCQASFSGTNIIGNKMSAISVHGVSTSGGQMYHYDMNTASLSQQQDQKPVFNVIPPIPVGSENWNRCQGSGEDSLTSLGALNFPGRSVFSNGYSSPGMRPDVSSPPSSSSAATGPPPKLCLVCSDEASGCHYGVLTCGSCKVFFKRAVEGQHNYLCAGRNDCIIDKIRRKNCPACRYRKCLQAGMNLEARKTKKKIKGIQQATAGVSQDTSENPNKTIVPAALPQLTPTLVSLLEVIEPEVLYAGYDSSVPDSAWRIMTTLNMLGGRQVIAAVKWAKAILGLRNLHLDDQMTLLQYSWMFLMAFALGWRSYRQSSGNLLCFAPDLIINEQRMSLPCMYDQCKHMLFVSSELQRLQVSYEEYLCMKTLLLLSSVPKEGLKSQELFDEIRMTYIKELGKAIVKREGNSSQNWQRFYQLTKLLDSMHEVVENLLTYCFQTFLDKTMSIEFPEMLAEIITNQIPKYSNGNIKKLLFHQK
Procedure: For API repression assays, U2OS cells stably transfected with rat GR were grown in similar media as for CV-1 cells with the exception of the FBS concentration, which was 10% and the only antibiotic was […]. Cells were plated and transfected in a similar fashion, except for plasmids, which in this case were 50 ng/well AP1-Luc and 10 ng/well β-galactosidase. Post-transfection, cells were incubated with either 50 ng/mL TPA (Phorbol 12-myristate 13-acetate), or 50 ng/mL TPA and various hormone dilutions in 10% charcoal treated FBS media. The cells were incubated for 12 h, and the lysis, β-galactosidase assay, and luciferase assay were performed as previously described.

MR max fold activation (MR) | EC50 (GR) | Emax (GR) [%] | Compound
3.2 ± 0.9 | 6 nM | 77 | Cc1cc(O)cc(C)c1C(O)C1CCCC2=Cc3c(cnn3-c3ccc(F)cc3)CC21C (stereo not drawn) [Compound 227, 4-{[1-(4-Fluoro-phenyl)-4a-methyl-4,4a,5,6,7,8-hexahydro-1H-benzo[f]indazol-5-yl]-hydroxy-methyl}-3,5-dimethyl-phenol]
5.0 ± 1.5 | 4.9 nM | 80 | CC12Cc3cnn(-c4ccc(F)cc4)c3C=C1CCCC2C(O)c1cccc2[nH]ccc12 (stereo not drawn) [Compound 237, [1-(4-Fluoro-phenyl)-4a-methyl-4,4a,5,6,7,8-hexahydro-1H-benzo[f]indazol-5-yl]-(1H-indol-4-yl)-methanol]
6.2 ± 0.9 | 19.1 nM and 14.7 nM | 75 | CC12Cc3cnn(-c4ccc(F)cc4)c3C=C1CCCC2C(O)c1ccsc1 (stereo not drawn) [Compound 238, [1-(4-Fluoro-phenyl)-4a-methyl-4,4a-5,6,7,8-hexahydro-1H-benzo[f]indazol-5-yl]-thiophen-3-yl-methanol]
